# Molecular target: T1, human active recombinant p38 (p38α) (Homo sapiens, UniProt Q16539)
# T1 construct: 6His
# Assay: p38 Alpha Enzyme Assay (AlphaScreen, biotinylated-ATF2 substrate)
# Type: biochemical
# Conditions: means of replicate determinations; pre-incubated for 4 hours at 37° C.; SD of assay between 0.2 and 0.3 log units; read-out: p38α inhibition Mean pIC50 (converted)
# Procedure: The ability of the compounds of formula (I) to inhibit p38 kinase may be determined using the following biological assay:
# Enzyme assays were performed in polypropylene 96 well plates. The following solutions were added to each well; 10 μL of compound dilutions in assay buffer (20 mM HEPES pH 7.4, containing 20 mM magnesium acetate, 0.005% (w/v) Tween-20, 10 mM DTT) containing 1% (v/v) DMSO or assay buffer containing 1% (v/v) DMSO alone, 70 μL of assay buffer containing 36 nM substrate (biotinylated-ATF2) and 10 μL of an appropriate dilution of human active recombinant p38-6H is tagged. Depending on batch of p38, an appropriate dilution was typically a 5 nM solution to give a final enzyme concentration of 0.5 nM. At this stage, background control wells also received 50 μL of AlphaScreen quench buffer (10 mM HEPES pH 7.4 containing 100 mM EDTA, 0.2% (w/v) bovine serum albumin). The plate was covered, pre-incubated for 4 hours at 37° C. and the enzyme reaction initiated by addition of 10 μL 1 mM ATP. After incubation for a further 45 minutes at 37° C., the reaction was stopped by addition of 50 μL quench reagent and 50 μL of the quenched reaction mixture transferred to an opaque, white 96-well plate. Detection reagent, 25 μL of 10 mM HEPES pH 7.4 containing 100 mM EDTA, 0.2% (w/v) bovine serum albumin, 0.3 nM anti phosphoATF2 antibody and 25 μg/mL of AlphaScreen protein A acceptor and donor beads' (PerkinElmer Inc.), was added to all wells in a darkened room, the plate sealed and left in the dark for at least 5 hours before AlphaScreen readings were taken using a Perkin Elmer EnVision reader. Total, uninhibited activity was determined from assays performed in each assay plate. The mean control in the absence of p38 activity was subtracted from each well. Data were expressed as percent inhibition of total activity using equation 1. Percent Inhibition=100*(1−Test/Control) Eq.1 Where . . . Test=p38 kinase activity in the presence of compound Control=p38 kinase activity in the absence of compound.
# pIC50 is defined as the logarithm of the reciprocal of the concentration of compound required for 50% reduction in total p38 kinase activity.
# The standard deviation of the p38 enzyme inhibition assay is between 0.2 and 0.3 log units.
# T1 sequence (Q16539 whole entry): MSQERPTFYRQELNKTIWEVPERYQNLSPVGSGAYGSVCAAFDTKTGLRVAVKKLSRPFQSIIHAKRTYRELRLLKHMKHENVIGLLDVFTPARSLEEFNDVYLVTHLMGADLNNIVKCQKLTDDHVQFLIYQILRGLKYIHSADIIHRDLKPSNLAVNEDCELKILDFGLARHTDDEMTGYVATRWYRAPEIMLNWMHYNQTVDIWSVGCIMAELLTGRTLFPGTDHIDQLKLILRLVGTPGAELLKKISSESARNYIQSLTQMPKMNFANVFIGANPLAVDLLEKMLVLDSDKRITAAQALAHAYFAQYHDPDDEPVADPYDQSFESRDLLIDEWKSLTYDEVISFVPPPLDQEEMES
row,SMILES,IC50 [pM]
1,"Cc1c(F)cc(C(=O)NC2CC2)cc1-c1ccc2c(=O)n(CC3(CO)CC3)cc(SC3CCNCC3)c2c1 [Example 64, N-Cyclopropyl-3-fluoro-5-[2-{[1-(hydroxymethyl)cyclopropyl]methyl}-1-oxo-4-(piperidin-4-ylsulfanyl)-1,2-dihydroisoquinolin-6-yl]-4-methylbenzamide]",100
2,"Cc1c(F)cc(C(=O)NC2CC2)cc1-c1ccc2c(=O)n(CC(CO)CO)cc(CN3CCN[C@@H](C)C3)c2c1 [Example 35, N-Cyclopropyl-3-fluoro-5-(2-[3-hydroxy-2-(hydroxymethyl)propyl]-4-{[(3S)-3-methylpiperazin-1-yl]methyl}-1-oxo-1,2-dihydroisoquinolin-6-yl)-4-methylbenzamide]",5010
3,"Cc1c(F)cc(C(=O)NC2CC2)cc1-c1ccc2c(=O)n(CC(C)(C)CO)cc(S(=O)(=O)NCCN(C)C)c2c1 [Example 56, N-cyclopropyl-3-[4-{[2-(dimethylamino)ethyl]sulfamoyl}-2-(3-hydroxy-2,2-dimethylpropyl)-1-oxo-1,2-dihydroisoquinolin-6-yl]-5-fluoro-4-methylbenzamide]",794
4,"Cc1c(F)cc(C(=O)NC2CC2)cc1-c1ccc2c(=O)n(CC(C)(C)CO)cc(CN3CCNC[C@H]3CO)c2c1 [Example 21, N-Cyclopropyl-3-fluoro-5-[2-(3-hydroxy-2,2-dimethylpropyl)-4-{[(2S)-2-(hydroxymethyl)piperazin-1-yl]methyl}-1-oxo-1,2-dihydroisoquinolin-6-yl]-4-methylbenzamide]",251
5,"Cc1c(F)cc(C(=O)NC2CC2)cc1-c1ccc2c(=O)n(CC(C)(C)CO)cc(C(C)N3CCNCC3)c2c1 (single isomer, unassigned) [Example 40, N-Cyclopropyl-3-fluoro-5-[2-(3-hydroxy-2,2-dimethylpropyl)-1-oxo-4-(1-piperazin-1-ylethyl)-1,2-dihydroisoquinolin-6-yl]-4-methylbenzamide]",79.4
6,Cc1c(F)cc(C(=O)NC2CC2)cc1-c1ccc2c(=O)n(CCO)cc(CN3CCN[C@@H](C)C3)c2c1 [Example 6],1000
7,"Cc1c(F)cc(C(=O)NC2CC2)cc1-c1ccc2c(=O)n(CCO)cc(CN3CCNCC3)c2c1 [Example 5, N-Cyclopropyl-3-fluoro-5-(2-(2-hydroxyethyl)-1-oxo-4-(piperazin-1-ylmethyl)-1,2-dihydroisoquinolin-6-yl)-4-methylbenzamide]",200
8,"Cc1c(F)cc(C(=O)NC2CC2)cc1-c1ccc2c(=O)n(CC(C)(C)CO)cc(C(C)N3CCC(C)(N)CC3)c2c1 (centres unmarked) [Example 41, 3-{4-[1-(4-Amino-4-methylpiperidin-1-yl)ethyl]-2-(3-hydroxy-2,2-dimethylpropyl)-1-oxo-1,2-dihydroisoquinolin-6-yl}-N-cyclopropyl-5-fluoro-4-methylbenzamide]",631

# Further lines, results first:
row,IC50 [pM],SMILES
1,126,"Cc1c(F)cc(C(=O)NC2CC2)cc1-c1ccc2c(=O)n(CC(C)(C)CO)cc(CN3CCNCC3)c2c1 [Example 1, N-Cyclopropyl-3-fluoro-5-[2-(3-hydroxy-2,2-dimethylpropyl)-1-oxo-4-(piperazin-1-ylmethyl)-1,2-dihydroisoquinolin-6-yl]-4-methylbenzamide]"
2,501,"Cc1c(F)cc(C(=O)NC2CC2)cc1-c1ccc2c(=O)n(CC(C)(C)CO)cc(C(C)N3CCCNCC3)c2c1 (centres unmarked) [Example 43, N-Cyclopropyl-3-{4-[1-(1,4-diazepan-1-yl)ethyl]-2-(3-hydroxy-2,2-dimethylpropyl)-1-oxo-1,2-dihydroisoquinolin-6-yl}-5-fluoro-4-methylbenzamide]"
3,316,"Cc1c(F)cc(C(=O)NC2CC2)cc1-c1ccc2c(=O)n(CC(C)(C)CO)cc(CN3CCCNCC3)c2c1 [Example 23, N-Cyclopropyl-3-[4-(1,4-diazepan-1-ylmethyl)-2-(3-hydroxy-2,2-dimethylpropyl)-1-oxo-1,2-dihydroisoquinolin-6-yl]-5-fluoro-4-methylbenzamide]"

# — patent publication US8012980B2, “Isoquinolinone derivatives” (AstraZeneca AB, priority 2008, dated 2011)
